The structures appear in SMILES notation. In brackets after ≈: the same amount, converted by molar mass. Several values for one entry are separate records, joined by “and”; a condition that tells them apart may be missing. Identical values can stand only once. Like-named read-outs stand apart in the source and are kept apart here.

The values that follow come from patent US20220194938A1, “NOVEL COMPOUNDS AND PHARMACEUTICAL COMPOSITIONS THEREOF FOR THE TREATMENT OF INFLAMMATORY DISORDERS” (GALAPAGOS NV, priority 2019, published 2022).

The subject of data set [1] is pooled cryopreserved hepatocytes. In words: Metabolic stability in hepatocytes (mouse). The data set is classed as in vitro ADME. The settings on record: 1 μM test compound. How it is done:
4.6. Metabolic Stability in Hepatocytes
The aim of this assay is to determine the metabolic stability of the compound in hepatocytes (cryopreserved) of different species. Low hepatocyte stability may result in the formation of unwanted metabolites, high clearance, and therefore is not desirable.
The decrease in parent was assessed by measuring the percentage remaining by LC-MS/MS analysis.
A 10 mM stock solution of test compound in DMSO was first diluted in DMSO to 3 mM, and then in modified Krebs-Henseleit buffer (Sigma, K3753) to 5 μM. This compound dilution was added to a suspension of pooled cryopreserved hepatocytes (BioreclamationIVT) at 37° C. under gentle shaking.
Final reaction conditions were: 1 μM of test compound, 0.03% DMSO, 0.5 million viable hepatocytes/mL, and 75 μL incubation volume.
Testosterone (1 μM) and 7-hydroxycoumarin (1 μM) were used, respectively as phase I and phase II metabolic reaction controls.
After 0, 10, 20, 45, 90, 120 and 180 min of incubation, the reaction was terminated with 225 μL of MeCN:MeOH (2:1) containing 100 ng/mL of diclofenac as analytical internal standard. Samples were mixed, centrifuged and the supernatant analyzed by LC-MS/MS.
The instrument responses (ratios of test compound and internal standard peak areas) were referenced to the zero time point samples (considered as 100%) in order to determine the percentage of compound remaining.
Plots of percentage compound remaining are used to determine the intrinsic clearance in the hepatocyte incubations using the following equations:
Scaled Clint[L/h/kg]=Clint[μL/min/10^6 cells]*#(10^6) cells/g liver*60*(1/10^6) Scaled Clint unbound [L/h/kg]=Clint [L/h/kg]/Fu,inc where: fu,inc equals hepatocyte binding, derived from microsomal binding (fu,mic) by following equation: […]

Data set [2] in a line: Thermodynamic solubility. Type of data set: physicochemical. The settings on record: 37° C.; for solubility thermodynamic at 24 h: thermodynamic from solid. The text has this: 4.2. Thermodynamic Solubility
Poor solubility, in particular poor thermodynamic solubility can limit the absorption of compounds from the gastrointestinal tract which in turn may reduce oral bioavailability.
Thermodynamic solubility investigates the solubility of a compound as a saturated solution in equilibrium, by opposition to kinetic solubility, which measures the solubility of a metastable solution where supersaturation may occur and provide over estimation of the actual solubility of the compound. (Klein 2010)
4.2.1. Thermodynamic Solubility—Protocol 1
In a 8 mL glass vial, 1-2 mg of dry matter of compound are added and stirred with the suitable buffers (Fed State Simulated Intestine Fluid, FeSSIF, or Fasted State Simulated Intestine Fluid, FaSSIF, or Fasted State Simulated Gastric Fluid, FaSSGF, or phosphate buffer pH 7.4) for 24 h at r.t. (for the buffer pH 7.4) or 37° C. (for the GI fluids). The concentration of the mixture is 1 mg/mL.
A volume of 500 μL are sampled, centrifuged for 10 min at 10 000 rpm and filtered. The samples are diluted in duplicates in DMSO (F100 and F10). Then, a final dilution (F100) in 80/20 H2O/MeCN containing the internal standard (warfarin) is used for LCMS-MS analysis.
A standard curve is made starting from a 200,000 ng/mL stock in DMSO, freshly prepared from dry matter. Then, successive concentrations at […], 1,000, 200 and 75 ng/mL in DMSO are prepared by using the Tecan robot.
Two quality control samples are made: one of 10,000 ng/mL and one of 500 ng/mL in DMSO, also starting from the DMSO working stock solution at 200,000 ng/mL.
The standard curve and quality controls are diluted a F100 in 80/20 H2O/MeCN (with internal standard) and analyzed on LC/MS-MS (API4000 or API5500).
The samples are analyzed on LC-MS with a flow rate of 0.6 mL/min. The mobile phase A is 0.1% formic acid in water and the mobile phase B is 0.1% formic acid in MeCN. The sample is run under positive or negative ion spray on Pursuit C18-5 μm (2.0×20 mm) column, from Agilent.
The peak areas of the standard curve are plotted in a graph and a linear or polynomial of the second order equation is used to calculate the unknown concentrations of the test compound.
4.2.2. Thermodynamic Solubility—Protocol 2
In an 8 mL glass vial, 1-2 mg of dry matter of compound were added and stirred with the suitable buffers (Fed State Simulated Intestine Fluid, FeSSIF, or Fasted State Simulated Intestine Fluid, FaSSIF, or Fasted State Simulated Gastric Fluid, FaSSGF, or phosphate buffer pH 7.4) for 24 h at r.t. (for the buffer pH 7.4) or 37° C. (for the GI fluids). The concentration of the mixture was 1 mg/mL.
A volume of 1000 μL were sampled, centrifuged for 10 min at 10 000 rpm and 500 μL of the supernatant were filtered on captiva plate. The samples were diluted in duplicates in DMSO (F100 and F10). Then, a final dilution (F100) in 80/20 H2O/MeCN containing the internal standard (warfarin) was used for LCMS-MS analysis.
A standard curve was made starting from a 40,000 ng/mL stock in DMSO, freshly prepared from dry matter. Then, successive concentrations at 15,000, 11,000, 6,000, 2,500, 1,000, 375, 150 and 75 ng/mL in DMSO were prepared.
Three quality control samples were made: one of 10,000, 1,500 and 200 ng/mL in DMSO, also starting from the DMSO working stock solution at 40,000 ng/mL.
The standard curve and quality controls were diluted a F100 in 80/20 H2O/MeCN (with internal standard) and analyzed on LC/MS-MS (API4000 or API5500).
The samples were analyzed on LC-MS with a flow rate of 0.6 mL/min. The mobile phase A was 0.1% formic acid in water and the mobile phase B was 0.1% formic acid in 90% acetonitrile and 10% of water. The sample was run under positive or negative ion spray on Pursuit C18-5 μm (2.0×20 mm) column, from Agilent. […]

[3] abbreviates: Fasted State Simulated Gastric Fluid, 24 h.
Where [4] appears, read: Fasted State Simulated Intestine Fluid, 24 h.
Where [5] appears, read: Fasted State Simulated Gastric Fluid (FaSSGF), fassgf or other biorelevant, Fasted State Simulated Gastric Fluid, read-out: Tsol FaSSGF.
Setting [6] is: Fasted State Simulated Intestine Fluid (FaSSIF), fassif, Fasted State Simulated Intestine Fluid, read-out: Tsol FaSSIF.
[7] abbreviates: Fed State Simulated Intestine Fluid (FeSSIF), fessif, Fed State Simulated Intestine Fluid, read-out: Tsol FeSSIF.

Turning to `CNC(=O)c1cc2nc(CCC(C)(C)O)cn2cc1NC(=O)c1cccc(C(F)(F)F)n1` [Compound 2, 2-(3-hydroxy-3-methyl-butyl)-N-methyl-6-[[6-(trifluoromethyl)pyridine-2-carbonyl]amino]imidazo[1,2-a]pyridine-7-carboxamide], the “Mouse (Perc. remaining at 90 min)” value in data set [1] is 103.4%. The “Tsol FaSSGF” value in data set [2] (setting [3]) was 673 µg/mL and 969 µg/mL. For the same molecule, the “Tsol FaSSIF” value in data set [2] (setting [4]) is 9.08 µg/mL and 9.24 µg/mL. Further, the “Tsol FeSSIF” value in data set [2] (Fed State Simulated Intestine Fluid, 24 h) was 35.4 µg/mL and 25.8 µg/mL.
With `COc1cc2nc(CCC(C)(C)O)cn2cc1NC(=O)c1cccn(C2CC2)c1=O` [Compound 5, 1-cyclopropyl-N-[2-(3-hydroxy-3-methyl-butyl)-7-methoxy-imidazo[1,2-a]pyridin-6-yl]-2-oxo-pyridine-3-carboxamide], in data set [1], the “Mouse (Perc. remaining at 90 min)” value is 100%. Further, the figures for the solubility thermodynamic at 24 h in data set [2] (setting [5]), in data set [2] (setting [6]) and in data set [2] (setting [7]) were over 1000 µg/mL, 798 µg/mL (≈ 1940 µM) and over 1000 µg/mL, respectively.
On to `COc1cc2nc(CCC(C)(C)O)cn2cc1NC(=O)c1cccn(C)c1=O` [Compound 4, N-[2-(3-hydroxy-3-methyl-butyl)-7-methoxy-imidazo[1,2-a]pyridin-6-yl]-1-methyl-2-oxo-pyridine-3-carboxamide], for which, in data set [1], the “Mouse (Perc. remaining at 90 min)” value came out at 87.75%. Besides, the solubility thermodynamic at 24 h in data set [2] (setting [5]) is 116 µg/mL (≈ 302 µM); in data set [2] (setting [6]), 125 µg/mL (≈ 325 µM).
In the case of `CCOc1c(NC(=O)c2cccn(C)c2=O)cn2cc(CCC(C)(C)O)nc2c1F` [Compound 38, N-[7-ethoxy-8-fluoro-2-(3-hydroxy-3-methyl-butyl)imidazo[1,2-a]pyridin-6-yl]-1-methyl-2-oxo-pyridine-3-carboxamide], the solubility thermodynamic at 24 h in data set [2] (setting [5]) is over 1000 µg/mL; in data set [2] (setting [6]), 96.8 µg/mL (≈ 232 µM).
`COc1cc2nc(CCS(C)(=O)=O)cn2cc1NC(=O)c1cccc(C(F)(F)F)n1` [Compound 24, N-[7-methoxy-2-(2-methylsulfonylethyl)imidazo[1,2-a]pyridin-6-yl]-6-(trifluoromethyl)pyridine-2-carboxamide]: the “Mouse (Perc. remaining at 90 min)” value in data set [1] was 46%. In addition, the solubility thermodynamic at 24 h in data set [2] (setting [5]) is over 1000 µg/mL; in data set [2] (setting [6]) it was 2.44 µg/mL (≈ 5.52 µM).
Regarding `CCn1cccc(C(=O)Nc2cn3cc(CCC(C)(C)O)nc3cc2OC)c1=O` [Compound 23, 1-ethyl-N-[2-(3-hydroxy-3-methyl-butyl)-7-methoxy-imidazo[1,2-a]pyridin-6-yl]-2-oxo-pyridine-3-carboxamide], the “Mouse (Perc. remaining at 90 min)” value in data set [1] worked out at 89.65%. Moreover, the values for the solubility thermodynamic at 24 h in data set [2] (setting [5]) and in data set [2] (setting [6]) were over 1000 µg/mL and 459 µg/mL (≈ 1150 µM), respectively.
Consider `[2H]C([2H])([2H])NC(=O)c1cc2nc(CCC(C)(C)O)cn2cc1NC(=O)c1cccc(C(F)(F)F)n1` [Compound 1, 2-(3-hydroxy-3-methyl-butyl)-N-(trideuteriomethyl)-6-[[6-(trifluoromethyl)pyridine-2-carbonyl]amino]imidazo[1,2-a]pyridine-7-carboxamide], for which the “Mouse (Perc. remaining at 90 min)” value in data set [1] is 96.3%.
Turning to `CCOc1c(NC(=O)c2cccn(C3CC3)c2=O)cn2cc(CCC(C)(C)O)nc2c1F` [Compound 37, 1-cyclopropyl-N-[7-ethoxy-8-fluoro-2-(3-hydroxy-3-methyl-butyl)imidazo[1,2-a]pyridin-6-yl]-2-oxo-pyridine-3-carboxamide], the “Mouse (Perc. remaining at 90 min)” value in data set [1] came out at 103.5%. The solubility thermodynamic at 24 h was over 1000 µg/mL in data set [2] (setting [5]) and 70.5 µg/mL (≈ 159 µM) in data set [2] (setting [6]).
As for `COc1cc2nc(CCC(C)(C)O)cn2cc1NC(=O)c1cccc(C(C)(F)F)n1` [Compound 20, 6-(1,1-difluoroethyl)-N-[2-(3-hydroxy-3-methyl-butyl)-7-methoxy-imidazo[1,2-a]pyridin-6-yl]pyridine-2-carboxamide], the “Mouse (Perc. remaining at 90 min)” value in data set [1] is recorded as 75.2%. In data set [2] (setting [6]), the solubility thermodynamic at 24 h was 2.63 µg/mL (≈ 6.29 µM).
As for `COc1c(NC(=O)c2cccn(C3CC3)c2=O)cn2cc(CCC(C)(C)O)nc2c1F` [Compound 42, 1-cyclopropyl-N-[8-fluoro-2-(3-hydroxy-3-methyl-butyl)-7-methoxy-imidazo[1,2-a]pyridin-6-yl]-2-oxo-pyridine-3-carboxamide], the “Mouse (Perc. remaining at 90 min)” value in data set [1] was found to be 91.45%. The solubility thermodynamic at 24 h in data set [2] (setting [5]) is over 1000 µg/mL; in data set [2] (setting [6]), 181 µg/mL (≈ 422 µM); in data set [2] (setting [7]), 612 µg/mL (≈ 1430 µM).
As to `COc1cccc(C(=O)Nc2cn3cc(CCC(C)(C)O)nc3cc2OC)n1` [Compound 8, N-[2-(3-hydroxy-3-methyl-butyl)-7-methoxy-imidazo[1,2-a]pyridin-6-yl]-6-methoxy-pyridine-2-carboxamide], in data set [1], the “Mouse (Perc. remaining at 90 min)” value was determined as 26.4%. The solubility thermodynamic at 24 h in data set [2] (setting [6]) is 8.56 µg/mL (≈ 22.3 µM).
Regarding `CC(C)(O)CCc1cn2cc(NC(=O)c3cccc(C(F)(F)F)n3)c(C(=O)NCC(F)F)cc2n1` [Compound 48, N-(2,2-difluoroethyl)-2-(3-hydroxy-3-methylbutyl)-6-(6-(trifluoromethyl)picolinamido)imidazo[1,2-a]pyridine-7-carboxamide], the “Mouse (Perc. remaining at 90 min)” value in data set [1] stood at 86%.
Regarding `CCOc1c(NC(=O)c2cccn(C3CC3)c2=O)cn2cc(CCS(C)(=O)=O)nc2c1F` [Compound 39, 1-cyclopropyl-N-[7-ethoxy-8-fluoro-2-(2-methylsulfonylethyl)imidazo[1,2-a]pyridin-6-yl]-2-oxo-pyridine-3-carboxamide], the results for the solubility thermodynamic at 24 h in data set [2] (setting [5]) and in data set [2] (setting [7]) were over 1000 µg/mL and 20.9 µg/mL (≈ 45.2 µM), respectively. Further, in data set [2] (setting [3]), the “Tsol FaSSGF” value is >1000, μg/mL. The “Tsol FaSSIF” value in data set [2] (setting [4]) was 7.3 µg/mL and 7.50 µg/mL.
`CCNC(=O)c1cc2nc(CCC(C)(C)O)cn2cc1NC(=O)c1cccc(C(F)(F)F)n1` [Compound 49, N-ethyl-2-(3-hydroxy-3-methylbutyl)-6-(6-(trifluoromethyl)picolinamido)imidazo[1,2-a]pyridine-7-carboxamide]: the “Mouse (Perc. remaining at 90 min)” value in data set [1] came out at 87.15%.
